According to US20120270844A1, “METHODS FOR TREATING ALZHEIMER'S DISEASE” (aFRAXis, Inc., priority 2009, published 2012):

Assays:
Format in all cases: biochemical
PAK4 = PAK4 (Homo sapiens, UniProt O96013); assay: Z'Lyte fluorescence-based (FRET) PAK kinase assay, PAK4; conditions: 5 μM ATP
Experimental: (§1) A fluorescence-based assay format is used to determine IC50 values of test compounds in vitro. Purified PAK kinase is incubated with ATP, and a test compound at various concentrations and a substrate peptide containing two fluorophores. In a second step, the reaction mix is incubated with a site-specific protease that cleaves non-phosphorylated bat not phosphorylated substrate peptide, disrupting the FRET signal generated by the two fluorophores in the cleaved peptide (Z′Lyte™ Kinase assay platform; Life Technologies).
(§2) Reagents: 50 mM HEPES, pH 7.5; 0.01% BRIJ-35; 10 nM MgCl1; 1 mM EGTA, 2 uM substrate peptide Ser/Thr20 (proprietary Life Technologies Sequence), PAK enzyme [2.42-30.8 ng for PAK1, 0.29-6 ng for PAK2, 1.5-20 ng for PAK3 and 0.1-0.86 ng for PAK4; actual enzyme amounts depend on lot activity of the enzyme preparation]
(§3) Test compounds are dissolved in DMSO at various concentrations; the final DMSO concentration in the assay reaction is 1%.
(§4) ATP concentration at Kin apparent is used in the assay [50 ┌M ATP for PAK1 assay, 75 ┌M ATP for PAK2 assay, 100 μM ATP for PAK3 assay, 5 μM ATP for PAK4 assay] in a total assay volume of 10 μl. Assay reactions are incubated at room temperature for 1 hr. Following the kinase reaction, 5 μl of 1:256 dilution of development solution A (Life Technologies) is added and the reaction mix is incubated for an additional 1 hr at room temperature.
(§5) Plates are analyzed in a standard fluorescence plate reader (Tecan or equivalent) using an excitation wavelength of 400 nn and emission wavelengths of 445 nm and 520 nm.
(§6) Inhibition of kinase reaction is determined by emission ratio=emission@445 nm/emission@520 nm
as §1, with “non-phosphorylated but” for “non-phosphorylated bat”, “peptide (Z'Lyte™” for “peptide (Z′Lyte™”, “assay platform” for “assay platform;”
as §2, with “mM MgCl2;” for “nM MgCl1;”
as §4, with “at Km” for “at Kin”, “[50 μMATP” for “[50 ┌M ATP”, “75 µM” for “75 ┌M”, “[…]” for “10 μl.”, “kinase reaction.” for “kinase reaction,”, “[…]” for “5 μl”
(§7) Plates are analyzed in a standard fluorescence plate reader (Teem or equivalent) using an excitation wavelength of 400 nm and emission wavelengths of 445 nm and 520 nm.

PAK2 = PAK2 (Homo sapiens, UniProt Q13177); assay: Z'Lyte fluorescence-based (FRET) PAK kinase assay, PAK2; conditions: Table 1 of Example 100; 75 μM ATP
Sequence of PAK2 (Q13177 whole entry): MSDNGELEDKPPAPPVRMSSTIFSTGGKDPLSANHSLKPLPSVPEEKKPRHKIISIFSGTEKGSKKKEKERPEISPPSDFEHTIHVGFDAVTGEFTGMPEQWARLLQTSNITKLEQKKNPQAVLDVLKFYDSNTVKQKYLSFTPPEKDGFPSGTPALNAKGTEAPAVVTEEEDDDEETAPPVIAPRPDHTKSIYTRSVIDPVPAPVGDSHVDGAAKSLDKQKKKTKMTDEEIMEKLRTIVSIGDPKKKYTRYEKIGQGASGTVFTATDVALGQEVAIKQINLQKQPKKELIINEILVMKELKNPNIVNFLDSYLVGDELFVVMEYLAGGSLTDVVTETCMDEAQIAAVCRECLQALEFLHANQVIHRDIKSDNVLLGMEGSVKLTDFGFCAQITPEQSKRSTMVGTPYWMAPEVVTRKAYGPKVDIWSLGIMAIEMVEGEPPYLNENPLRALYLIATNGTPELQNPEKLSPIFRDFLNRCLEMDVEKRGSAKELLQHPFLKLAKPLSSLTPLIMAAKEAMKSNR
Experimental: as §1, §2, §3, §4, §5, §6
as §1, with “non-phosphorylated but” for “non-phosphorylated bat”, “peptide (Z'Lyte™” for “peptide (Z′Lyte™”, “assay platform” for “assay platform;”
as §2, with “mM MgCl2;” for “nM MgCl1;”
as §4, with “at Km” for “at Kin”, “[50 μMATP” for “[50 ┌M ATP”, “75 µM” for “75 ┌M”, “[…]” for “10 μl.”, “kinase reaction.” for “kinase reaction,”, “[…]” for “5 μl”
as §7

PAK1 = PAK1 (Homo sapiens, UniProt Q13153); assay: Z'Lyte fluorescence-based (FRET) PAK kinase assay, PAK1; conditions: 50 μM ATP
Sequence of PAK1 (Q13153 whole entry): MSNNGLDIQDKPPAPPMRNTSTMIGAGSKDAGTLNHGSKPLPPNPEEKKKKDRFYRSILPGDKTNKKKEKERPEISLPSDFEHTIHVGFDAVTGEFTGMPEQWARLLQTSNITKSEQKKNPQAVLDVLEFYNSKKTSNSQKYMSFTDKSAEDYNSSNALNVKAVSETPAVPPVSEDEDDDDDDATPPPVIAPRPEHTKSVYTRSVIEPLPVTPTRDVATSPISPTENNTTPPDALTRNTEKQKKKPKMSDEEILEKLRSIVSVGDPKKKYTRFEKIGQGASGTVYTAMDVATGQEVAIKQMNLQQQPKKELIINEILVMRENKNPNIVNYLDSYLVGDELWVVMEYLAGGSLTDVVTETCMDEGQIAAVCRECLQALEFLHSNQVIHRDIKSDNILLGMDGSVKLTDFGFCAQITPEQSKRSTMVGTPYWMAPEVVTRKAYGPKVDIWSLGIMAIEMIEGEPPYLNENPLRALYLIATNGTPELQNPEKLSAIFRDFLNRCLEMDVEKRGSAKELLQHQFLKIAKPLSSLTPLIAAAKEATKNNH
Experimental: as §1, §2, §3, §4, §5, §6
as §1, with “non-phosphorylated but” for “non-phosphorylated bat”, “peptide (Z'Lyte™” for “peptide (Z′Lyte™”, “assay platform” for “assay platform;”
as §2, with “mM MgCl2;” for “nM MgCl1;”
as §4, with “at Km” for “at Kin”, “[50 μMATP” for “[50 ┌M ATP”, “75 µM” for “75 ┌M”, “[…]” for “10 μl.”, “kinase reaction.” for “kinase reaction,”, “[…]” for “5 μl”
as §7

[1] = Table 1 of Example 29 (own compound numbering)

Sequence of PAK4 (O96013 whole entry): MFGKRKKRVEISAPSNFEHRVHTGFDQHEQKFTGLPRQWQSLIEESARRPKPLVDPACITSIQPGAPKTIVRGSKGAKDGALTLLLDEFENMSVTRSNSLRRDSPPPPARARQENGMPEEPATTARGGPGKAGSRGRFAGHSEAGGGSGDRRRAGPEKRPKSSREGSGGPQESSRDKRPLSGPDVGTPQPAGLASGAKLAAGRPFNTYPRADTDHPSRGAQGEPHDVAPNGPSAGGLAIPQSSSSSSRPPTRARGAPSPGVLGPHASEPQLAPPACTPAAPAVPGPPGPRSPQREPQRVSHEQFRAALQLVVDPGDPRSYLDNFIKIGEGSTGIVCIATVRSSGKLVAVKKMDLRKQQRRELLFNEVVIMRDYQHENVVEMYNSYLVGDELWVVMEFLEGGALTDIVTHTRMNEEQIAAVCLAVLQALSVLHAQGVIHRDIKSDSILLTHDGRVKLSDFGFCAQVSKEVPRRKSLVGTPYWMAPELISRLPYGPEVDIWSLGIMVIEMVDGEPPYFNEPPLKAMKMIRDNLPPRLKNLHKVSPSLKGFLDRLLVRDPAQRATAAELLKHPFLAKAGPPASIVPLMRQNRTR

Row | SMILES | IC50 (PAK4; Table 1 of Example 100) [µM] | IC50 (PAK2) [µM] | IC50 (PAK1; Table 1 of Example 100) [µM] | IC50 (PAK4; [1]) [µM] | IC50 (PAK1; [1]) [µM]
1 | O=c1ccc2cnc(Nc3ccc(N4CCOCC4)cc3)nc2n1C1CCCC1 [Compound 2] | 1 to 10 | > 10 | > 10 |  | 
2 | CN(C)c1ccc(Nc2ncc3ccc(=O)n(C4CCCC4)c3n2)cc1 [Compound 3] | 1 to 10 | > 10 | > 10 |  | 
3 | CN(C)CCNc1ccc(Nc2ncc3ccc(=O)n(C4CCCC4)c3n2)cc1 [Compound 4] | 1 to 10 | 1 to 10 | 1 to 10 |  | 
4 | CN1CCN(c2ccc(Nc3ncc4ccc(=O)n(Cc5ccccc5)c4n3)cc2)CC1 [Compound 26] |  | 1 to 10 |  |  | 
5 | CN1CCN(c2ccc(Nc3ncc4ccc(=O)n(Cc5cccc(F)c5)c4n3)cc2)CC1 [Compound 27] | 1 to 10 | 1 to 10 | 1 to 10 |  | 
6 | CN1CCN(c2ccc(Nc3ncc4ccc(=O)n(Cc5ccc(F)cc5)c4n3)cc2)CC1 [Compound 28] | > 10 | > 10 | 1 to 10 |  | 
7 | COc1ccc(Cn2c(=O)ccc3cnc(Nc4ccc(N5CCN(C)CC5)cc4)nc32)cc1 [Compound 29] | > 10 | > 10 | > 10 |  | 
8 | CN1CCN(c2ccc(Nc3ncc4ccc(=O)n(Cc5ccc(Cl)cc5)c4n3)cc2)CC1 [Compound 30] | > 10 | > 10 | 1 to 10 |  | 
9 | CN1CCN(c2ccc(Nc3ncc4ccc(=O)n(Cc5ccccc5Cl)c4n3)cc2)CC1 [Compound 31] | 1 to 10 | < 1 | < 1 |  | 
10 | COc1cccc(Cn2c(=O)ccc3cnc(Nc4ccc(N5CCN(C)CC5)cc4)nc32)c1 [Compound 33] | > 10 | > 10 | 1 to 10 |  | 
11 | COc1ccccc1Cn1c(=O)ccc2cnc(Nc3ccc(N4CCN(C)CC4)cc3)nc21 [Compound 34] | 1 to 10 | 1 to 10 | < 1 |  | 
12 | CN1CCN(c2ccc(Nc3ncc4ccc(=O)n(Cc5ccccc5F)c4n3)cc2)CC1 [Compound 35] | 1 to 10 | 1 to 10 | 1 to 10 |  | 
13 | CN1CCN(c2ccc(Nc3ncc4ccc(=O)n(Cc5ccccn5)c4n3)cc2)CC1 [Compound 36] | 1 to 10 | > 10 | 1 to 10 |  | 
14 | CN1CCN(c2ccc(Nc3ncc4ccc(=O)n(C5CCCC5)c4n3)cc2)CC1 [compound 57] |  |  |  | 1 to 10 | < 1
15 | O=c1ccc2cnc(Nc3ccc(N4CCOCC4)cc3)nc2n1C1CCCC1 [compound 58] |  |  |  | 1 to 10 | > 10
16 | CN(C)c1ccc(Nc2ncc3ccc(=O)n(C4CCCC4)c3n2)cc1 [compound 59] |  |  |  | 1 to 10 | > 10
17 | CN(C)CCNc1ccc(Nc2ncc3ccc(=O)n(C4CCCC4)c3n2)cc1 [compound 60] |  |  |  | 1 to 10 | 1 to 10
18 | CN1CCN(c2ccc(Nc3ncc4ccc(=O)n(C5CCc6ccccc65)c4n3)cc2)CC1 (stereo not drawn) [compound 62] |  |  |  | 1 to 10 | < 1
19 | O=c1ccc2cnc(Nc3ccc(NC4CCCNC4)cc3)nc2n1Cc1ccccc1C(F)(F)F (stereo not drawn) [compound 63] |  |  |  | < 1 | < 1
20 | O=c1ccc2cnc(Nc3ccc(NC4CCNCC4)cc3)nc2n1Cc1ccccc1C(F)(F)F [compound 64] |  |  |  | < 1 | < 1
21 | CN1CCN(c2ccc(Nc3ncc4ccc(=O)n([C@@H]5CCCc6ccccc65)c4n3)cc2)CC1 [compound 66] |  |  |  | 1 to 10 | 1 to 10
22 | CN1CCN(c2ccc(Nc3ncc4ccc(=O)n(C5CCCc6ccccc65)c4n3)cc2)CC1 (stereo not drawn) [compound 67] |  |  |  | 1 to 10 | < 1
23 | O=c1ccc2cnc(Nc3ccc(OC4CCNCC4)cc3)nc2n1Cc1ccccc1C(F)(F)F [compound 68] |  |  |  | < 1 | < 1
